Measured values published in patent US12496284B2, “Use of itaconate and its derivatives/analogues to induce hair growth” (The Johns Hopkins University, priority 2019, dated 2025).
Entries after “also recorded” stand apart in the source; their conditions may differ.

Key:
[1] = test system: C57BL6/J mice; experiment: Hair growth (telogen to anagen transition) after topical treatment of shaved mice; format: in vivo; settings: for hair growth compared with JAK inhibitors: 3% each diluted in DMSO, topical, FIG. 9
Description: All adult wild-type (C57BL6/J) mice were approximate 8.5 weeks old and obtained from Jackson Labs (#00664). All animals were maintained in an AAALAC (Accreditation of Laboratory Animal Care International)—approved facility at Johns Hopkins University. All experimental procedures were approved by the Institutional Animal Care and Use Committee at Johns Hopkins under the protocol #MO17M298.
(§1) Adult C57BL6/J mice were treated during the refractory period of hair dormancy (telogen) to allow for hair growth (anagen) re-initiation. To determine the anagen re-entry, mice were grossly observed for skin thickening and darkening. Mice were shaved on their dorsal side and the left half the skin was topically treated with either vehicle (DMSO) or prodrug (20% IS-100-142 (compound 5)) with the right side untreated. The treatment regimen was once every other day for a total of two treatment cycles.
In one aspect, the presently disclosed subject matter is directed to compounds that might be able to enhance hair growth. To this end, the ability of dimethyl itaconate to induce the transition from the resting phase of the hair cycle, telogen, to the growing phase of the hair cycle, anagen, in wild type mice was tested.
Finally, the ability of compound 5 to also induce hair growth as observed for DI was tested. […] Here mice were treated as above, except the left side was treated with either compound 5 or DMSO and the right side was left untreated. The small amount of hair growth in the DMSO treated mouse was from the natural anagen cycle beginning.
as §1, with “All adult wild-type (C57BL6/J) mice were approximate 8.5 weeks old and obtained from Jackson Labs. Animals were fed standard mouse diet. […] Adult” for “Adult”, “right” for “left”, “dimethyl itaconate (20%) or with 1% compound 5, 2% compound 5 or 5% compound 5” for “prodrug (20% IS-100-142 (compound 5))”, “left” for “right”, “or three treatments with similar results.” for “treatment cycles.”

[2] = test system: TLR3/IL6/STAT3 axis; experiment: Treatment of human keratinocytes (NHEKs) with itaconate prodrugs, poly(I:C) challenge, qRT-PCR; format: cell-based; settings: NHEKs pre-treated 2 days, then poly(I:C) for 24 hours, mRNA by qRT-PCR, FIG. 4, FIG. 6
Description: Neonatal human epidermal keratinocytes (NHEKs) isolates from neonatal foreskin were seeded at a density of 100,000 cells per well and were maintained in KGM supplemented with growth factors (KGM-GOLD Bullet kit, #192060). Prodrugs were reconstituted in DMSO. NHEKs were pre-treated with either vehicle (0.1% DMSO) or prodrug. After 2 days, NHEKs were treated with […] poly(I:C) for 24 hours.
Total RNA was isolated and purified from cultured NHEKs using the RNeasy Mini Kit (Qiagen, Valencia, CA, #74106). After assessing RNA purity and concentrations using a NanoDrop 2000 UV-Vis spectrophotometer, RNA was converted to cDNA using a reverse-transcription kit and random hexamer primers (Applied Biosystems, #4368814). mRNA expression was determined by qRT-PCR using gene-specific, fluorophore-based TaqMan probes and universal master mix (Applied Biosystems, #4366072). The qRT-PCR reactions were multiplexed using target and reference gene (RPLPO) probes. Relative mRNA fold changes were then quantified using the […] method.
Next, whether itaconate derivatives, such as itaconate prodrugs, have this same capacity was tested. To screen for compounds, those that behaved in vitro with similar properties to itaconate were evaluated. First, the molecular effect of dimethyl itaconate (DI) to blunt dsRNA (PIC; Polyinosinic:polycytidylic acid) effect at increasing TLR3, IL-6, and STAT3 expression was tested.
Next, the ability of synthesized itaconate prodrugs to behave similarly in the in vitro assay was tested. […] Methods are as above, but substituting the […].

[3] = Mouse skin penetration in Alopecia model; format: in vivo; settings: dose 5% w/v
From the text: Referring now to FIG. 12, mouse skin penetration in an Alopecia model for IS-100-142 (compound 5) (left panel) and monomethyl itaconate (right panel) is shown.

| Structure (SMILES) | hair growth compared with JAK inhibitors [1] | inhibition of dsRNA (poly(I:C)) effect at increasing TLR3, IL-6 and STAT3 expression (downstream gene targets TLR3, IL6, STAT3, WNT7B) [2] | inhibition of dsRNA (poly(I:C)) effect at increasing TLR3, IL-6 and STAT3 expression (downstream gene targets TLR3, IL6, STAT3, WNT7B) ([2]; listed as DI) | transition from telogen (resting phase) to anagen (growing phase) of the hair cycle ([1]; 20% dimethyl itaconate, wild type mice, FIG. 5) | inhibition of dsRNA (poly(I:C)) effect at increasing TLR3, IL-6 and STAT3 expression (downstream gene targets TLR3, IL6, STAT3, WNT7B) ([2]; listed as IS-100-142) | intact prodrug levels, skin versus plasma ([3]; topical application in DMSO, FIG. 12 left panel) | monomethyl itaconate levels, skin versus plasma ([3]; topical application of IS-100-142 in DMSO, FIG. 12 right panel) | transition of hair follicle from telogen to anagen (hair growth) ([1]; 1%, 2% or 5% compound 5 topical on right half of skin, once every other day, two or three treatments, FIG. 8) | hair growth ([1]; 20% compound 5 in DMSO, topical on left half of shaved dorsal skin, once every other day, two treatment cycles, FIG. 7) |
| --- | --- | --- | --- | --- | --- | --- | --- | --- | --- |
| C[C@@H]1CCN(C(=O)CC#N)C[C@@H]1N(C)c1ncnc2[nH]ccc12 [Tofacitinib, reference compound] | comparable levels | – | – | – | – | – | – | – | – |
| C=C(CC(=O)OC)C(=O)OC [dimethyl itaconate, reference compound] | – | blunt dsRNA | potently inhibits those markers | potently induced this transition; also recorded: induces the transition | – | – | – | – | – |
| C=C(CC(=O)OC)C(=O)OCOC(=O)OC(C)C [Compound 5] | comparable levels as Ruxolitinib and Tofacitinib | potently inhibited the same dsRNA response as DI | – | – | inhibits JAK-STAT signaling most effectively | higher in skin versus plasma | higher in skin versus plasma | promote transition of hair follicle from telogen (quiescence phase) to anagen (growing phase); also recorded: induces hair growth | induces hair growth |
